How the values were obtained:
[1] = molecular target: T1, serotonin (5-HT) transporter (SERT) (Rattus norvegicus (Rat), UniProt P31652); assay: Rat synaptosome SERT [3H]5-HT uptake inhibition assay; conditions: Inhibition of [3H]5-HT Uptake at SERT IC50 (nM), 5 nM [3H]5-HT
[2] = molecular target: T1, serotonin (5-HT) transporter (SERT); assay: Rat synaptosome SERT [3H]5-HT release assay; conditions: [3H]5-HT release via SERT EC50 (nM), 5 nM [3H]5-HT
[3] = molecular target: Nicotinic Acetylcholine Receptor α4β2 (nAchRa4/b2) (Homo sapiens (Human), UniProt P17787+P43681); assay: Nicotinic acetylcholine receptor α4β2 ion channel blocking assay; format: cell-based
Nicotinic Acetylcholine Receptor α4β2 (nAchRa4/b2), sequence (P43681 29-627 limits assumed): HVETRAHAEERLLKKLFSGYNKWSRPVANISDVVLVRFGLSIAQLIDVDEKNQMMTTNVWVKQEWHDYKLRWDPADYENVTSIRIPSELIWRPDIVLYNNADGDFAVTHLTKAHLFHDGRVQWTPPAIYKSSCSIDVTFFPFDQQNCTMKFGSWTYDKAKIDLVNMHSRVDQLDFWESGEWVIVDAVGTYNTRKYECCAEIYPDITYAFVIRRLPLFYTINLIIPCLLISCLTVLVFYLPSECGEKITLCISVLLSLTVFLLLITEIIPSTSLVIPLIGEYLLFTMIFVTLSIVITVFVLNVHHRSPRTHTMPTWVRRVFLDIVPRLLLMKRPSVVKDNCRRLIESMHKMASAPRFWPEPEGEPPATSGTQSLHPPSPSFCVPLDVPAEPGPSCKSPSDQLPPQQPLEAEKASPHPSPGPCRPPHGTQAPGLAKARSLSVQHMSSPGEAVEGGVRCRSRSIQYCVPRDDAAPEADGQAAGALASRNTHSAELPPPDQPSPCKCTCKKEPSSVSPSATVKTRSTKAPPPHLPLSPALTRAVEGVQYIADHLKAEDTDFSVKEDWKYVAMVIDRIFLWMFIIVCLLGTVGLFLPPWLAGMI
Nicotinic Acetylcholine Receptor α4β2 (nAchRa4/b2), sequence (P17787 26-502 limits assumed): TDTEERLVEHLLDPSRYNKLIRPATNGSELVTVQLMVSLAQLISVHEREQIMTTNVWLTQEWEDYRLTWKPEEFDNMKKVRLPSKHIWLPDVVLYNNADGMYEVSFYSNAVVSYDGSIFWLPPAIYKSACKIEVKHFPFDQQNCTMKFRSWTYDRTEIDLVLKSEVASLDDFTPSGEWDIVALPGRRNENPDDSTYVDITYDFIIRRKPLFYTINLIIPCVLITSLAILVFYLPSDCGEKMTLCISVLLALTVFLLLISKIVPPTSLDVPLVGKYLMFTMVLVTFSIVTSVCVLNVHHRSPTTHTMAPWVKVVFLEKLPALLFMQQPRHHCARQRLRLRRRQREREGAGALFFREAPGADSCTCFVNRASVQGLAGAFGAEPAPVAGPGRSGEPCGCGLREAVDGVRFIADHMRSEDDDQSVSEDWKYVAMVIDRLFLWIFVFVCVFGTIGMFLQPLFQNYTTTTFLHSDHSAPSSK
Procedure: Cell lines were expanded from freezer stocks according to standard procedures. Cells were seeded in a total volume of 20 μL into black-walled, clear-bottom, Poly-D-lysine coated 384-well microplates and incubated at 37° C. for the appropriate time prior to testing.
Assays were performed in 1×Dye Loading Buffer consisting of 1×Dye, and 2.5 mM freshly-prepared Probenecid when applicable.
Test compounds were assayed at 10 concentrations with the highest concentration either 30 or 10 μM and subsequent concentrations using a 0.33 dilution factor.
Prior to testing, cells were loaded with dye then incubated for 30-60 minutes at 37° C. For antagonist determination, cells were pre-incubated with sample. Dihydro-β-erythroidine was used as a positive control. Intermediate dilution of sample stocks was performed to generate 2-5×sample in assay buffer.
After dye loading, cells were moved from the incubator and 10-25 μL 2-5×sample was added to cells in the presence of EC80 agonist when appropriate. Cells were incubated for 30 minutes at room temperature in the dark to equilibrate plate temperature. Vehicle concentration was 1%.
Compound activity was measured on a FLIPRTetra(MDS) and analyzed using CBIS data analysis suite (ChemInnovation, CA). Percentage inhibition was calculated using the following formula: % Inhibition=100%×(1−(mean RLU of test sample−mean RLU of vehicle control)/(mean RLU of EC80 control−mean RLU of vehicle control)).

[4] = molecular target: human 5-HT transporter (hSERT) (Homo sapiens (Human), UniProt P31645); assay: Human serotonin transporter  assay ([3H]imipramine radioligand, CHO cells); format: binding
Procedure: Benzofuran derivatives were evaluated for inhibiting the human 5-HT transporter (hSERT) as expressed in CHO cells using an antagonist radioligand assay (Tatsumi, M. et al. (1999), Eur. J Pharmacol., 368: 277-283). […] Test compounds were assayed in three trials at […], and 0.94868 μM.

MAO-A = MAO-A (Homo sapiens (Human), UniProt P21397); assay: MAO-A inhibition assay (kynuramine); format: biochemical
MAO-A, sequence (P21397 whole entry, looked up, species assumed): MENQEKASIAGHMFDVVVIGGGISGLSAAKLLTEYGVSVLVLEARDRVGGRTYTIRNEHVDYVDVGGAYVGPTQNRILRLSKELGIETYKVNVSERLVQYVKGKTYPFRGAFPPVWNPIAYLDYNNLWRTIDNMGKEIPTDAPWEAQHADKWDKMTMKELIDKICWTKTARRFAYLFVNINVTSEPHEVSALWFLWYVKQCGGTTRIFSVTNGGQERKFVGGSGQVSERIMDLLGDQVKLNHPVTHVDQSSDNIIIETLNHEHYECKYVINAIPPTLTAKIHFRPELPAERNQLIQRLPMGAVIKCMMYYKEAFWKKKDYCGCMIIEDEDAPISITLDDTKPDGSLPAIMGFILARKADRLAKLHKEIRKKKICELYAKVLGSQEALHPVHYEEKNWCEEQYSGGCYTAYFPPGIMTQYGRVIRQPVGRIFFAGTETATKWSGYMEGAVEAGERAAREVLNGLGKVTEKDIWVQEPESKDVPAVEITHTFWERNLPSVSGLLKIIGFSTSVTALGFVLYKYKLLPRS
Procedure: MAO-A and test compounds were preincubated at 37° C. for 15 minutes before substrate addition. Test compounds were assayed at 10 concentrations with the highest concentration either 30 or 10 μM and subsequent concentrations using a 0.33 dilution factor. The reaction was initiated by addition of kynuramine and incubated at 37° C. for 30 minutes. The reaction was terminated by addition of NaOH. The amount of 4-hydroquioline formed was determined through spectrofluorimetric readout with the emission detection at 380 nm and excitation wavelength 310 nm.

DAT = DAT (Homo sapiens (Human), UniProt Q01959); assay: hDAT release assay in CHO cells ([3H]dopamine); conditions: EC50 DAT (Mean ± SEM, nM), CHO cells expressing hDAT
SERT = SERT (Homo sapiens (Human), UniProt P31645); assay: hSERT release assay in CHO cells ([3H]serotonin); conditions: EC50 SERT (Mean ± SEM, nM), CHO cells expressing hSERT
5-HT1BR = 5-HT1BR (Homo sapiens (Human), UniProt P28222); assay: 5-HT1BR cAMP secondary messenger agonist assay (HitHunter, CHO-K1); format: cell-based
Source text: The 5-HT1BR cAMP secondary messenger agonist assay used a panel of CHO-K1 cell lines stably expressing non-tagged GPCRs that endogenously signal through cAMP. Hit Hunter® cAMP assays monitored the activation of a GPCR via Gi and Gs secondary messenger signaling in a homogenous, non-imaging assay format using DiscoverX Enzyme Fragment Complementation (EFC) with β-galactosidase as the functional endpoint.
The enzyme was split into two complementary portions: Enzyme Acceptor (EA) and Enzyme Donor (ED). Exogenously introduced ED fused to cAMP (ED-cAMP) competed with endogenously generated cAMP for binding to an anti-cAMP-specific antibody. Active β-galactosidase was formed by complementation of exogenous EA to any unbound ED-cAMP.
Cell lines were expanded from freezer stocks according to standard procedures. Cells were seeded in a total volume of 20 μL into white walled, 384-well microplates and incubated at 37° C. for the appropriate time prior to testing. cAMP modulation was determined using the DiscoverX HitHunter cAMP XS+ assay.
For agonist determination, cells were incubated with sample (in the presence of EC80 forskolin to induce response if measuring Gi secondary messenger signaling). Media was aspirated from cells and replaced with 15 μL 2:1 HBSS/10 mM Hepes:cAMP XS+ Ab reagent. Intermediate dilution of sample stocks was performed to generate 4×sample in assay buffer (optionally containing 4×EC80 forskolin). 5 μL of 4×sample was added to cells and incubated at 37° C. or room temperature for 30 or 60 minutes, as appropriate. Final assay vehicle concentration was 1%.

5-HT2B = 5-HT2B (Homo sapiens (Human), UniProt P41595); assay: 5-HT2B agonist and antagonist calcium assay (Calcium NWPLUS, FLIPR); format: cell-based
5-HT2B, sequence (P41595 whole entry, looked up, species assumed): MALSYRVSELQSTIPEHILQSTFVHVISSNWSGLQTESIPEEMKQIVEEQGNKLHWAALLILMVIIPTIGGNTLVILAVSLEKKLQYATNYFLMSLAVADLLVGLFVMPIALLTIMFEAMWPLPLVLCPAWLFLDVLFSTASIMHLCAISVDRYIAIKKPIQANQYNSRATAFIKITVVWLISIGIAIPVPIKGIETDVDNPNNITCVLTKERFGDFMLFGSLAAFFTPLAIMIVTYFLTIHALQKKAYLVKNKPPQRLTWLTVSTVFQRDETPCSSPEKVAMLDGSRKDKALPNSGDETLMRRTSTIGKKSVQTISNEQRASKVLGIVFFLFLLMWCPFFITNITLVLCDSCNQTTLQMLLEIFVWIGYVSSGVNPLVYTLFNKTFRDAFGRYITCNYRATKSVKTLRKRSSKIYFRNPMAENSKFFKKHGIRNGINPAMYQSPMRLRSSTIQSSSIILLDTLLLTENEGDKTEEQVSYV

5-HT2A receptors = 5-HT2A receptors (Homo sapiens (Human), UniProt P28223); assay: 5-HT2A agonist and antagonist calcium assay (Calcium NWPLUS, FLIPR); format: cell-based
Procedure: The DiscoveRx Calcium NWPLUS Assay was used for detection of changes in intracellular calcium as signalled by an increase of dye fluorescence in cells expressing 5-HT2A receptors. Signal was measured on a fluorescent plate reader equipped with fluidic handling capable of detecting rapid changes in fluorescence upon compound stimulation.
To conduct the assay, cell lines were expanded from freezer stocks according to standard procedures. Cells (10,000 cells/well) were seeded in a total volume of 50 μL (200 cells/μL) into black-walled, clear-bottom, Poly-D-lysine coated 384-well microplates and incubated at 37-C for the appropriate time prior to testing. DMSO concentration for all readouts was ≤0.2%.
Assays were performed in 1×DyeLoading Buffer consisting of 1×Dye (DiscoverX, Calcium No WashPLUS kit, Catalog No. 90-0091), 1×Additive A and 2.5 mM Probenecid in HBSS/20 mM Hepes. Probenecid was prepared fresh. Cells were loaded with dye prior to testing. Media was aspirated from cells and replaced with 25 μL Dye Loading Buffer. Test compounds were assayed at 10 concentrations with the highest concentration either 30 or 10 μM and subsequent concentrations using a 0.33 dilution factor. Cells with testing sample were incubated for 45 minutes at 37° C. and then 20 minutes at room temperature. After dye loading, cells were removed from the incubator and 25 μL of 2×compound in HBSS/20 mM Hepes was added using a FLIPR Tetra (MDS). […]
Compound agonist activity was measured on a FLIPR Tetra. Calcium mobilization was monitored for 2 minutes with a 5 second baseline read. FLIPR read-Area under the curve was calculated for the two minute read. Compound activity was analyzed using CBIS data analysis suite (ChemInnovation, CA). Percentage activity was calculated as 100%×(mean RFU of test sample−mean RFU of vehicle control)/(mean MAX RFU control ligand −mean RFU of vehicle control). For antagonist mode assays, percentage inhibition was calculated as 100%×(1−(mean RFU of test sample−mean RFU of vehicle control)/(mean RFU of EC80 control−mean RFU of vehicle control)).

[5] = IC50 (appeared close to), lowest concentration too high for accurate estimate

Structure (SMILES)	IC50 [1]	EC50 [2]	IC50 [3]	IC50 [4, 5]	IC50 (MAO-A)	EC50 (DAT)	EC50 (SERT)	Hill Coef. (5-HT1BR)	EC50 (5-HT1BR; 5-HT1BR EC50 (μM))	EC50 (5-HT1BR; 5HT1B Agonist (μM))	IC50 (5-HT2B)	IC50 ([4]; SERT IC50 (μM), 2 nM [3H]imipramine)	EC50 (5-HT2A receptors)	IC50 (5-HT2A receptors)
CC[C@H](Cc1ccc2occc2c1)NC (stereo in doubt) [Compound R-5-MBPB, 1-(benzofuran-5-yl)-N-methylbutan-2-amine]	212 ± 36.2 nM	49.5 ± 27.1 nM	6330 nM	~0.949 µM										
CC[C@@H](Cc1ccc2occc2c1)NC (stereo in doubt) [Compound S-5-MBPB, 1-(benzofuran-5-yl)-N-methylbutan-2-amine]	124 ± 35.8 nM	31.2 ± 14.3 nM	9980 nM	~0.0949 µM	2660 nM									
CN[C@@H](C)Cc1ccc2occc2c1 [75% S-5-MAPB]						632 ± 113 nM	80 ± 7 nM							
CN[C@H](C)Cc1ccc2occc2c1 [Compound R-5-MAPB, (R)-1-(benzofuran-5-yl)-N-methylpropan-2-amine]	150 ± 8.6 nM	29.3 ± 3.7 nM	4240 nM		3940 nM	1950 ± 401 nM	184 ± 3 nM	1.13	0.981 µM	0.98 µM	360 nM	2.7 µM	2400 nM	5340 nM

— patent US11767305B2, “Advantageous benzofuran compositions for mental disorders or enhancement” (Tactogen Inc, priority 2020, dated 2023)
